# Patent US20080058208A1, “5,6-Cycloalkyl-7-Aminotriazolopyrimidines, their Preparation and their Use for Controlling Harmful Fungi, and Compositions Comprising these Compounds” (BASF Aktiengesellschaft, priority 2004, published 2008)
# Columns and labels:
# Phytophthora infestans = type: cell-based; conditions: 125 ppm; sporangia suspension; 18° C.; absorption at 405 nm on seventh day after inoculation
# Pythium species = assay: Activity against Pythium species in the microtiter test; type: cell-based; conditions: 125 ppm; zoospore suspension; 18° C.; absorption at 405 nm on seventh day after inoculation
smiles,measurement,setting,value
"Nc1c2c(nc3ncnn13)CCCC2 [I-2, 5,6,7,8-tetrahydro-[1,2,4]triazolo[5,1-b]quinazolin-9-ylamine]","relative growth of the pathogens, % of that of the untreated control",Phytophthora infestans,6%
same,"relative growth of the pathogens, % of that of the untreated control",Pythium species,7%
